{
  "source": "patent US20100183645A1",
  "about": "“ACTIVE OR PASSIVE IMMUNIZATION AGAINST PROAPOPTOTIC NEUROTROPHINS FOR THE TREATMENT AND/OR PREVENTION OF NEURODEGENERATIVE DISEASES” (INSTITUT PASTEUR, priority 2003, published 2010)",
  "molecules": {"B1": {"name": "BDNF treated with peroxynitrite: brain-derived neurotrophic factor treated with peroxynitrite by the identical protocol (protein, UniProt P23560 129-247, looked up)", "Neurotrophic factor BDNF": "HSDPARRGELSVCDSISEWVTAADKKTAVDMSGGTVTVLEKVPVSKGQLKQYFYETKCNPMGYTKEGCRGIDKRHWNSQCRTTQSYVRALTMDSKKRIGWRFIRIDTSCVCTLTIKRGR", "modifications": "Neurotrophic factor BDNF peroxynitrite-treated", "notes": "brain-derived neurotrophic factor treated with peroxynitrite by the identical protocol"}, "B2": {"name": "peroxynitrite-treated NGF: NGF oxidised by peroxynitrite, forming high molecular weight NGF aggregates (protein)", "chain": "SSTHPVFHMGEFSVCDSVSVWVGDKTTATDIKGKEVTVLAEVNINNSVFRQYFFETKCRASNPVESGCRGIDSKHWNSYCTTTHTFVKALTTDEKQAAWRFIRIDTACVCVLSRKATRRG"}},
  "key": {"[1]": {"system": "motor neurons plated on astrocyte monolayers", "assay": "Motor neuron survival in astrocyte-motor neuron co-cultures", "type": "cell-based, rat", "details": "for Motor neuron survival, percentage of control: co-cultures treated with NGF, mean±SD", "experimental": "Cell cultures and treatments. […] Astrocytes were plated at a density of 2×10^4 cells/cm^2 and maintained in DMEM supplemented with 10% fetal bovine serum, HEPES (3.6 g/l), penicillin ([…]) and streptomycin (100 μg/ml).\nFor co-culture experiments, motor neurons were plated on astrocyte monolayers at a density of 300 cells/cm^2 and maintained in L15 medium supplemented with 0.63 mg/ml bicarbonate, 5 μg/ml insulin, 0.1 mg/ml conalbumin, 0.1 mM putrescine, 30 nM sodium selenite, 20 nM progesterone, 20 mM glucose, 100 IU/ml penicillin, 100 μg/ml streptomycin, and 2% horse serum. Drugs and blocking antibodies were added 3 h after plating at the indicated concentrations.\nTreatments with peroxynitrite and LPS. Peroxynitrite was generously provided by Dr. Rafael Radi (UDELAR, Uruguay) and its concentration determined spectrophotometrically at 302 nm (e=1700 M^−1 cm^−1). Confluent astrocyte monolayers were washed with Dulbecco's phosphate-buffered saline (PBS), supplemented with 0.8 mM MgCl2, 1 mM CaCl2, and 5 mM glucose, and then incubated in 1 ml of 50 mM Na2HPO4, 90 mM NaCl, 5 mM KCl, 0.8 mM MgCl2, 1 mM CaCl2, and 5 mM glucose, pH 7.4. Finally, three additions of 5 μL bolus of peroxynitrite were made to reach the final concentration of 0.5 mM. Five minutes after peroxynitrite exposure, the buffer was removed and replaced with L15 medium, supplemented as described above. In co-culture experiments, motor neurons were plated 1 h after peroxynitrite exposure. […] LPS (from E. coli 026-B6 Cat. No L2654 Sigma) was directly applied to astrocyte monolayers 24 h before and immediately after plating of motor neurons in coculture experiments."}, "[2]": {"system": "pure motor neuron cultures", "assay": "Motor neuron survival in pure motor neuron cultures maintained with GDNF", "type": "cell-based, rat", "details": "for Motor neuron survival with peroxynitrite-treated neurotrophin: without exogenous nitric oxide, GDNF 1 ng/ml, 48 h", "experimental": "Purified motor neuron cultures were plated at a density of 300 cells/cm^2 in dishes precoated with polyornithinelaminin and maintained in Neurobasal medium supplemented with 2% horse serum, […] L-glutamate, 25 μM β-mercaptoethanol, 0.5 mM L-glutamine, and 2% B-27 supplement (Gibco-Invitrogen). Blocking antibodies were added 3 h after plating at the indicated dilutions. The generation of a low steady state concentration (<50 nM) of nitric oxide was generated by the spontaneous deassociation of 10 μM DETA-NONate (Cayman).\nTo assess the pro-apoptotic activity of conditioned media, astrocyte monolayers were incubated for 24 h in Neurobasal medium supplemented as described above, and that medium immediately used to replace the medium of pure motor neuron cultures established 24 h before. Blocking antibodies and DETA-NONOate were added to the conditioned media and motor neuron survival determined after 48 h.\nTo assess the pro-apoptotic activity in spinal cord extracts, lumbar cords were dissected from 90 day-old G93A mice or non-transgenic littermates over ice under sterile conditions. To 100 mg of tissue were added 0.4 ml of PBS containing 3 mM EGTA, 1 mM EDTA, 0.5 μg/ml aprotinin, 0.5 μg/ml pepstatin and 0.1 mM PMSF at 0° C., and the tissue was then homogenized under sterile conditions. Homogenates were centrifuged at 40,000 g for 1 hr and the clear supernatants collected and kept at −80° C. until used. Aliquots were added to motor neuron cultures to reach a final protein concentration of 0.5 μg/ml. In all cases, blocking antibodies and drugs were added 3 h after motor neuron plating. The generation of a steady state concentration (<50 nM) of nitric oxide was obtained by the spontaneous disassociation of 10 μM NOC-18 (Dojindo, Gaithersburg).\nCell counts. Motor neuron survival was assessed by directly counting all cells displaying intact neurites longer than 4 cells in diameter following immunostaining against p 75NTR Counts were performed over an area of 2.76 cm^2 in the center of 35 mm dishes or in an area measuring 0.90 cm^2 along a diagonal in 24-well plates (Cassina et al., 2002). The mean density of motor neurons in control cocultures was 90±4 cells/cm^2.\nProtocol for preparation of muscle extracts and western blotting. Quadriceps muscles were dissected from symptomatic G93A SOD1 or non transgenic littermate mice over ice under sterile conditions. To 1 g of tissues was added 4 ml of PBS containing 3 mM EGTA, 1 mM EDTA, 0.5 mg/ml aprotinin, 0.5 mg/ml pepstatin and 0.1 mM PMSF at 0° C., and the tissue was homogenized under sterile conditions. Homogenates were centrifuged at 40,000 g for 1 hr and the clear supernatants collected and kept at −80° C. until used. Quadriceps were homogenized in lysis buffer containing 2 mM EDTA, 1% SDS, 1 mM PMSF, 10 μg/ml aprotinin, 1 μg/ml leupeptin and 0.5 mM sodium vanadate. Protein quantification was performed using the BCA Protein Assay Reagent kit (Pierce Biotechnology). The samples were prepared in Laemmli buffer supplemented with […] and proteins were transferred to nitrocellulose membrane (Amersham). Membranes were blocked for 2 h in blocking buffer (5% BSA, 0.1% Tween 20 in Tris-buffered saline (TBS), pH 7.4) followed by an over-night incubation with the primary antibody diluted in blocking buffer. […]"}},
  "data": [
    {"molecule": "COC(=O)CC[C@H](NC(=O)[C@H](CC(=O)OC)NC(=O)OCc1ccccc1)C(=O)N[C@H](C(=O)N[C@@H](CC(=O)OC)C(=O)CF)C(C)C", "note": "[DEVD-fmk]", "values": [
      {"measurement": "Prevention of NGF-induced motor neuron death by caspase inhibitors", "setting": "[1]; co-culture, 10 μM added every 24 hours", "result": "prevented"}
    ]},
    {"molecule": "CC(=N)NCCCC[C@H](N)C(=O)O", "note": "[LNIL, L-N6-(1-Iminoethyl)-lysine]", "values": [
      {"measurement": "Prevention of motor neuron apoptosis induced by NGF", "setting": "[1]; co-culture, 10 μM, 72 h", "result": "significantly prevented"}
    ]},
    {"molecule": "CCCNC(=N)NCCC[C@H](N)C(=O)O", "note": "[NPLA, N5[Imino(propylamino)methyl]-Lornithine; Nu-Propyl-L-arginine]", "values": [
      {"measurement": "Prevention of motor neuron apoptosis induced by NGF", "setting": "[1]; co-culture, 10 μM, 72 h", "result": "significantly prevented"},
      {"measurement": "Motor neuron survival, percentage of control", "setting": "[1]; inhibitor 10 μM, 72 h", "result": "110.4±9.2", "unit": "%"}
    ]},
    {"molecule": "[N]=O", "note": "[Nitric oxide, reference compound]", "values": [
      {"measurement": "Motor neuron survival, nitric oxide alone", "setting": "[2]; <50 nM from 10 μM NOC-18, without NGF", "result": "did not affect motor neuron survival"}
    ]},
    {"molecule": "FC(F)(F)c1ccccc1-n1ccnc1", "note": "[TRIM, 1-(2-Trifluoromethylphenyl)imidazole]", "values": [
      {"measurement": "Prevention of motor neuron apoptosis induced by NGF", "setting": "[1]; co-culture, 10 μM, 72 h", "result": "significantly prevented"}
    ]},
    {"molecule": "N=C(N)NN", "note": "[aminoguanidine]", "values": [
      {"measurement": "Prevention of motor neuron apoptosis induced by NGF", "setting": "[1]; co-culture, 50 μM, 72 h", "result": "significantly prevented"},
      {"measurement": "Motor neuron survival, percentage of control", "setting": "[1]; inhibitor 50 μM, 72 h", "result": "87.0±8.0", "unit": "%"}
    ]},
    {"molecule": "Oc1nc(O)c2nc(O)[nH]c2n1", "note": "[urate]", "values": [
      {"measurement": "Prevention of the effects of NGF on motor neurons", "setting": "[1]; co-culture, 200 μM, 72 h", "result": "prevented"}
    ]},
    {"molecule": "B1", "values": [
      {"measurement": "Motor neuron survival with peroxynitrite-treated neurotrophin", "setting": "[2]", "result": "induces motor neuron apoptosis"}
    ]},
    {"molecule": "B2", "values": [
      {"measurement": "Motor neuron survival with peroxynitrite-treated neurotrophin", "setting": "[2]", "result": "Decreased motor neuron survival"}
    ]}
  ]
}
